Measured values as given in patent publication US20040248867A1, “Novel anti-inflammatory 17α-heterocyclic-esters of 17βcarbothioate androstane derivatives” (priority 2001, published 2004).

Tested on: progesterone receptor
Assay: Screen for progesterone receptor activity (T47D alkaline phosphatase); selectivity versus glucocorticoid receptor
Type: cell-based, human
Settings: further experiments (additional data); ED50 at progesterone receptor divided by ED50 at glucocorticoid receptor
Protocol: The human breast cancer cell line T47D has been reported to upregulate an endogenous alkaline phosphatase in response to progestins (Di Lorenzo et al., Cancer Research (1991) 51, 4470-4475. T47D cells were seeded into 96 well plates at a density of 1×10^5 cells per well and grown overnight at 37° C. Steroids were dissolved in DMSO, added to the cells (final DMSO concentration 0.7%), and incubated for 24 hours at 37° C. The cells were then washed with PBS and lysed with RIPA buffer (1% IGEPAL, 0.5% Na deoxycholate, 0.1% SDS in phosphate buffered saline). Alkaline phosphatase activity was measured spectrophotometrically (405 nm) using p-nitrophenylphosphate (1.5 mg/ml) as a substrate dissolved in 1M diethanolamine, 0.28M NaCl, 0.5 mM MgCl2. Dose response curves were constructed from which EC50 values were estimated.
Compounds were tested for progesterone activity in accordance with the above screen and the selectivity was determined by dividing the ED50 at the progesterone receptor by the ED50 at the glucocorticoid receptor.

SMILES | Selectivity
CC1CC2C3CC(F)C4=CC(=O)C=CC4(C)C3(F)C(O)CC2(C)C1(OC(=O)C1SCCS1)C(=O)SCF (stereo not drawn) [Example 4, 6α,9α-Difluoro-17α-(1,3-dithiolan-2-ylcarbonyl)oxy-11β-hydroxy-16α-methyl-3-oxo-androsta-1,4-diene-17β-carbothioic acid S-fluoromethyl ester] | 1192
CC1CC2C3CC(F)C4=CC(=O)C=CC4(C)C3(F)C(O)CC2(C)C1(OC(=O)C1(C)CCCS1)C(=O)SCF (stereo not drawn) [Example 13A, 6α,9α-Difluoro-11β-hydroxy-16α-methyl-3-oxo-17α-(2-methyl-tetrahydrothiophen-2-ylcarbonyl)oxy-androsta-1,4-diene-17β-carbothioic acid S-fluoromethyl ester] | 2650
CC1CC2C3CC(F)C4=CC(=O)C=CC4(C)C3(F)C(O)CC2(C)C1(OC(=O)C1(C)CCCS1)C(=O)SCF (stereo not drawn) [Example 13B, 6α,9α-Difluoro-11β-hydroxy-16α-methyl-3-oxo-17α-(2-methyl-tetrahydrothiophen-2-ylcarbonyl)oxy-androsta-1,4-diene-17β-carbothioic acid S-fluoromethyl ester] | 1955
CC1CC2C3CC(F)C4=CC(=O)C=CC4(C)C3(F)C(O)CC2(C)C1(OC(=O)C1CSC1)C(=O)SCF (stereo not drawn) [Example 6, 6α,9α-Difluoro-11β-hydroxy-16α-methyl-3-oxo-17α-(thietan-3-ylcarbonyl)oxy-androsta-1,4-diene-17β-carbothioic acid S-fluoromethyl ester] | 500
CC1CC2C3CC(F)C4=CC(=O)C=CC4(C)C3(F)C(O)CC2(C)C1(OC(=O)C1(C)CCCO1)C(=O)SCF (stereo not drawn) [Example 8A, 6α,9α-Difluoro-11β-hydroxy-16α-methyl-3-oxo-17-(2-methyl-tetrahydrofuran-2-ylcarbonyl)oxy-androsta-1,4-diene-17β-carbothioic acid S-fluoromethyl ester] | 49425
CC1CC2C3CC(F)C4=CC(=O)C=CC4(C)C3(F)C(O)CC2(C)C1(OC(=O)C1(C)OCCO1)C(=O)SCF (stereo not drawn) [Example 11, 6α,9α-Difluoro-11β-hydroxy-16α-methyl-17α-(2-methyl-1,3-dioxolan-2-ylcarbonyl)oxy-3-oxo-androsta-1,4-diene-17β-carbothioic acid S-fluoromethyl ester] | 1620
CC1CC2C3CC(F)C4=CC(=O)C=CC4(C)C3(F)C(O)CC2(C)C1(OC(=O)C1CCCO1)C(=O)SCF (stereo not drawn) [Example 2, 6α,9α-Difluoro-11β-hydroxy-16α-methyl-3-oxo-17α-(tetrahydrofuran-2R-ylcarbonyl)oxy-androsta-1,4-diene-17β-carbothioic acid S-fluoromethyl ester] | 1099
CCC(=O)O[C@]1(C(=O)SCF)[C@H](C)C[C@H]2[C@@H]3C[C@H](F)C4=CC(=O)C=C[C@]4(C)[C@@]3(F)[C@@H](O)C[C@@]21C [Fluticasone propionate, 6α,9α-Difluoro-17α-(1-oxopropoxy)-11β-hydroxy-16α-methyl-3-oxo-androsta-1,4-diene-17β-carbothioic acid S-fluoromethyl ester, reference compound] | 82
CC1CC2C3CC(F)C4=CC(=O)C=CC4(C)C3(F)C(O)CC2(C)C1(OC(=O)C1(C)CCCO1)C(=O)SCF (stereo not drawn) [Example 8B, 6α,9α-Difluoro-11β-hydroxy-16α-methyl-3-oxo-17-(2-methyl-tetrahydrofuran-2-ylcarbonyl)oxy-androsta-1,4-diene-17β-carbothioic acid S-fluoromethyl ester] | 63855
